Among the data in patent US11339130B1 (Blade Therapeutics, Inc., priority 2016, dated 2022) are IC50 values, retold here.

One experiment concerns the target T1, Human Calpain 9/NS1 (Homo sapiens, UniProt O14815).
T1 sequence (O14815 1-690): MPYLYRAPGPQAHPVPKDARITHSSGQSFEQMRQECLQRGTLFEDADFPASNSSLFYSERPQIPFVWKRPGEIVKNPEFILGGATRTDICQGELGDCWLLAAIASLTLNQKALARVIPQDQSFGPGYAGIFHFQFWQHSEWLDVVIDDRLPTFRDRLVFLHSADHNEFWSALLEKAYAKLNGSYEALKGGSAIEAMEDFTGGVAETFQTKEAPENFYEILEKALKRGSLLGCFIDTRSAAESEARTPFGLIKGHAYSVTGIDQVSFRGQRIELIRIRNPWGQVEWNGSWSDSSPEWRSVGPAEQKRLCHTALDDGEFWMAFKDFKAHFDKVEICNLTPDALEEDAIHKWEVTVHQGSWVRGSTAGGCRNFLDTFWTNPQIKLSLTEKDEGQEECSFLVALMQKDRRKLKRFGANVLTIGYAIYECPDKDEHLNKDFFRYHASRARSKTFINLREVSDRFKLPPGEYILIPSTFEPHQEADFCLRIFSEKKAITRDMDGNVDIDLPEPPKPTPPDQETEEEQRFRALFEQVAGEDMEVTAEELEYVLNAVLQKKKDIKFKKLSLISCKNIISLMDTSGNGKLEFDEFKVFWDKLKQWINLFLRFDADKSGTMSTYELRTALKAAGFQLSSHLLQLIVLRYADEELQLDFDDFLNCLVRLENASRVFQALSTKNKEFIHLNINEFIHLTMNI
T1 sequence (P04632 1-268 partner): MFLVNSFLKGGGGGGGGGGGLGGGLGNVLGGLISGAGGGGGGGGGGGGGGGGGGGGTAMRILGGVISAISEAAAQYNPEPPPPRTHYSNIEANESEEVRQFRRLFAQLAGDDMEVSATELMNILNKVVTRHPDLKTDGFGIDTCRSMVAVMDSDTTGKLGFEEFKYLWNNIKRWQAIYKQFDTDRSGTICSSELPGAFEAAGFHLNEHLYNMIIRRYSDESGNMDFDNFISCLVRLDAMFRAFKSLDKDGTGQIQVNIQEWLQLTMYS
The experiment is described as follows: Calpain inhibition continuous fluorescence (FRET) assay, Human Calpain 9/NS1. Format: biochemical. In a few lines:
(§1)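 Inhibitors were preincubated with calpain in 50 mM Tris pH 7.5, 100 mM NaCl, 1 mM DTT at 25C. Reactions were started with 5-FAM/QXL 520 FRET peptide substrate plus CaCl2 and read at 490/520 nm for 10 min. IC50s came from 4-parameter fits of slope rates (1-5 min).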

Experiment [1] deals with Calpain activity in SH-SY5Y cells (SBDP-150). Nature of the experiment: SH-SY5Y Spectrin western blot assay (SBDP-150 breakdown product, A23187-induced). To be noted: Homo sapiens, read-out: SH-SY5Y Spectrin IC50. It is filed as cell-based. (In western blotting, separated proteins are transferred to a membrane and probed.)
A further experiment has as its target T2, Human Calpain 1/NS1 (Homo sapiens, UniProt P07384).
T2 sequence (P07384 1-714): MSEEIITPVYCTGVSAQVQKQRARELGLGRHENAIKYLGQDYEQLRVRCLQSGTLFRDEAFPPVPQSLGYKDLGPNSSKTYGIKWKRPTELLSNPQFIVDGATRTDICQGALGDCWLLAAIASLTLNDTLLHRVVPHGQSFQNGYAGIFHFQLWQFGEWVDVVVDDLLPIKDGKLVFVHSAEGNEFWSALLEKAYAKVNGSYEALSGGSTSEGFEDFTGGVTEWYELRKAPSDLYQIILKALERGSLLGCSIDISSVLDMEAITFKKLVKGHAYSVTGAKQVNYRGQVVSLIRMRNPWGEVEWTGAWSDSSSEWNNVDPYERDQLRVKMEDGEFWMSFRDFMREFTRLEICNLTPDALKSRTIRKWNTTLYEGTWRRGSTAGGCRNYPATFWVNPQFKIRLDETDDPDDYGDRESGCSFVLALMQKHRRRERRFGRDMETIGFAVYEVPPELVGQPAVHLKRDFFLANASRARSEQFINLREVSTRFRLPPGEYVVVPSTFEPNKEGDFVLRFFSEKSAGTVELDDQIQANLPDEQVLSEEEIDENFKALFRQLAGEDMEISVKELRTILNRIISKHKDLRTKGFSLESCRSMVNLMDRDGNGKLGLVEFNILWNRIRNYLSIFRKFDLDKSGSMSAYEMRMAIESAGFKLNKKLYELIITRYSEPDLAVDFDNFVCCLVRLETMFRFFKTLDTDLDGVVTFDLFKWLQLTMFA
T2 sequence (P04632 1-268 partner): T1 sequence (P04632 1-268 partner)
The experiment is described as follows: Calpain inhibition continuous fluorescence (FRET) assay, Human Calpain 1/NS1. It is filed as biochemical. In a few lines: as §1

Another experiment concerns the target T3, Human Calpain 2/NS1 (Homo sapiens, UniProt P17655).
T3 sequence (P17655 1-700): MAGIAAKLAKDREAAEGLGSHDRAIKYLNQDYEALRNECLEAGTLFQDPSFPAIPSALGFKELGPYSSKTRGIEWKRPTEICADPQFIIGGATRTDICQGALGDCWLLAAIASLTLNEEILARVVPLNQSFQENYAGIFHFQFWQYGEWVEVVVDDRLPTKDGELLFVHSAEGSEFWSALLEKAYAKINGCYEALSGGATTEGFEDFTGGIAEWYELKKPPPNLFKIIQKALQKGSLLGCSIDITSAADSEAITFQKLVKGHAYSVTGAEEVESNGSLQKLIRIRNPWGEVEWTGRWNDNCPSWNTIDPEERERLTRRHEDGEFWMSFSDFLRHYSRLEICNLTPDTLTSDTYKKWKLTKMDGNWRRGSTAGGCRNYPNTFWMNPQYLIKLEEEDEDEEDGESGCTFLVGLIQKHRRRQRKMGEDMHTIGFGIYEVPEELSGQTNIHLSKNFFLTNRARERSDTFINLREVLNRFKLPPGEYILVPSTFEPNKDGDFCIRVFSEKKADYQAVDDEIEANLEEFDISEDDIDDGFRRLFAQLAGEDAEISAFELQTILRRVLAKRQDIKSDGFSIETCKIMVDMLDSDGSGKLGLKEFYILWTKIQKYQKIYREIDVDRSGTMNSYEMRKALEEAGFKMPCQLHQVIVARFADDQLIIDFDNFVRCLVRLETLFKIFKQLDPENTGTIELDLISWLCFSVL
T3 sequence (P04632 1-268 partner): T1 sequence (P04632 1-268 partner)
The experiment is described as follows: Calpain inhibition continuous fluorescence (FRET) assay, Human Calpain 2/NS1. Format: biochemical. In a few lines:
as §1

Experiment [2] has as its system Calpain activity in SH-SY5Y cells. Nature of the experiment: SH-SY5Y + AMC fluorescence assay (Suc-LLVY-AMC substrate). It is filed as cell-based.
The mark [3] stands for this setting: Column C, read-out: Human Calpain 9/NS1 IC50.
Where [4] appears, read: Column D, SH-SY5Y cells, A23187-induced SBDP-150.
Setting [5] is: Column A, read-out: Human Calpain 1/NS1 IC50.
The mark [6] stands for this setting: Column B, read-out: Human Calpain 2/NS1 IC50.
Setting [7] is: Column E, read-out: SH-SY5Y + AMC IC50.
Where [8] appears, read: read-out: SH-SY5Y + AMC IC50, Column E.

The structures appear in SMILES notation. Where a name gives a salt, the structure may show the parent alone. Read-outs that look alike come from different tables or passages of the source.

As to `Cc1cc(C(=O)N[C@@H](Cc2ccccc2)C(=O)C(N)=O)n(-c2cccc(CNS(=O)(=O)c3ccccc3)c2)n1` [Compound 145, (S)—N-(4-amino-3,4-dioxo-1-phenylbutan-2-yl)-3-methyl-1-(3-(phenylsulfonamidomethyl)phenyl)-1H-pyrazole-5-carboxamide], the IC50 was less than 3 µM at Human Calpain 9/NS1 (setting [3]); less than 10 µM in experiment [1] (setting [4]); less than 3 µM at Human Calpain 1/NS1 (setting [5]); less than 3 µM on Human Calpain 2/NS1 (setting [6]); less than 10 µM in experiment [2] (setting [7]).
Consider `Cc1cc(C(=O)N[C@@H](Cc2ccccc2)C(=O)C(N)=O)n(-c2cccc(CNCc3ccccc3)c2)n1` [Compound 146, (S)—N-(4-amino-3,4-dioxo-1-phenylbutan-2-yl)-1-(3-((benzylamino)methyl)phenyl)-3-methyl-1H-pyrazole-5-carboxamide], for which the IC50 was less than 3 µM at Human Calpain 9/NS1 (setting [3]); 10 to 25 µM in experiment [1] (setting [4]); less than 3 µM at Human Calpain 1/NS1 (setting [5]); less than 3 µM at Human Calpain 2/NS1 (setting [6]); less than 10 µM in experiment [2] (setting [7]).
In the case of `CCOC(=O)NCc1cccc(-n2nc(C)cc2C(=O)N[C@@H](Cc2ccccc2)C(=O)C(N)=O)c1` [Compound 147, Ethyl (S)-(3-(5-((4-amino-3,4-dioxo-1-phenylbutan-2-yl)carbamoyl)-3-methyl-1H-pyrazol-1-yl)benzyl)carbamate], the IC50 was less than 3 µM at Human Calpain 9/NS1 (setting [3]); 10 to 25 µM in experiment [1] (SH-SY5Y); less than 3 µM on Human Calpain 1/NS1 (setting [5]); less than 3 µM on Human Calpain 2/NS1 (setting [6]); 10 to 25 µM in experiment [2] (setting [8]).
Turning to `Cc1cc(C(=O)N[C@@H](Cc2ccccc2)C(=O)C(N)=O)n(-c2ccc(CNC(=O)OCc3ccccc3)cc2)n1` [Compound 153, Benzyl (S)-(4-(5-((4-amino-3,4-dioxo-1-phenylbutan-2-yl)carbamoyl)-3-methyl-1H-pyrazol-1-yl)benzyl)carbamate], the IC50 on Human Calpain 9/NS1 (setting [3]) was less than 3 µM; in experiment [1] (SH-SY5Y), less than 10 µM; at Human Calpain 1/NS1 (setting [5]), less than 3 µM; at Human Calpain 2/NS1 (setting [6]), less than 3 µM; in experiment [2] (setting [8]) it was greater than 25 µM.
With `Cc1cc(C(=O)N[C@@H](Cc2ccccc2)C(=O)C(N)=O)n(-c2ccc(CNC(=O)c3ccccc3)cc2)n1` [Compound 154, (S)—N-(4-amino-3,4-dioxo-1-phenylbutan-2-yl)-1-(4-(benzamidomethyl)phenyl)-3-methyl-1H-pyrazole-5-carboxamide], the IC50 on Human Calpain 9/NS1 (setting [3]) is less than 3 µM; in experiment [1] (setting [4]), 10 to 25 µM; on Human Calpain 1/NS1 (setting [5]), less than 3 µM; at Human Calpain 2/NS1 (setting [6]), less than 3 µM; in experiment [2] (setting [7]) it was greater than 25 µM.
For `Cc1cc(C(=O)N[C@@H](Cc2ccccc2)C(=O)C(N)=O)n(-c2ccc(CNS(=O)(=O)c3ccccc3)cc2)n1` [Compound 156, (S)—N-(4-amino-3,4-dioxo-1-phenylbutan-2-yl)-3-methyl-1-(4-(phenylsulfonamidomethyl)phenyl)-1H-pyrazole-5-carboxamide], the IC50 was less than 3 µM at Human Calpain 9/NS1 (setting [3]); less than 10 µM in experiment [1] (setting [4]); less than 3 µM on Human Calpain 1/NS1 (setting [5]); less than 3 µM on Human Calpain 2/NS1 (setting [6]); greater than 25 µM in experiment [2] (setting [7]).
Consider `CC(=O)NCc1ccc(-n2nc(C)cc2C(=O)N[C@@H](Cc2ccccc2)C(=O)C(N)=O)cc1` [Compound 157, (S)-1-(4-(acetamidomethyl)phenyl)-N-(4-amino-3,4-dioxo-1-phenylbutan-2-yl)-3-methyl-1H-pyrazole-5-carboxamide], for which the IC50 was less than 3 µM on Human Calpain 9/NS1 (setting [3]); greater than 25 µM in experiment [1] (SH-SY5Y); less than 3 µM at Human Calpain 1/NS1 (setting [5]); less than 3 µM on Human Calpain 2/NS1 (setting [6]); greater than 25 µM in experiment [2] (setting [8]).
For `COC(=O)NCc1ccc(-n2nc(C)cc2C(=O)N[C@@H](Cc2ccccc2)C(=O)C(N)=O)cc1` [Compound 158, Methyl (S)-(4-(5-((4-amino-3,4-dioxo-1-phenylbutan-2-yl)carbamoyl)-3-methyl-1H-pyrazol-1-yl)benzyl)carbamate], the IC50 was less than 3 µM at Human Calpain 9/NS1 (setting [3]); 10 to 25 µM in experiment [1] (setting [4]); less than 3 µM at Human Calpain 1/NS1 (setting [5]); less than 3 µM at Human Calpain 2/NS1 (setting [6]); greater than 25 µM in experiment [2] (setting [7]).
Consider `Cc1cc(C(=O)N[C@@H](Cc2ccccc2)C(=O)C(N)=O)n(-c2ccc(CNC(=O)Cc3ccccc3)cc2)n1` [Compound 159, (S)—N-(4-amino-3,4-dioxo-1-phenylbutan-2-yl)-3-methyl-1-(4-((2-phenylacetamido)methyl)phenyl)-1H-pyrazole-5-carboxamide], for which the IC50 is less than 3 µM at Human Calpain 9/NS1 (setting [3]); 10 to 25 µM in experiment [1] (setting [4]); less than 3 µM at Human Calpain 1/NS1 (setting [5]); less than 3 µM at Human Calpain 2/NS1 (setting [6]); greater than 25 µM in experiment [2] (setting [7]).
Turning to `Cc1cc(C(=O)N[C@@H](Cc2ccccc2)C(=O)C(N)=O)n(-c2ccc(CNCc3ccccc3)cc2)n1` [Compound 160, (S)—N-(4-amino-3,4-dioxo-1-phenylbutan-2-yl)-1-(4-((benzylamino)methyl)phenyl)-3-methyl-1H-pyrazole-5-carboxamide hydrochloride], the IC50 at Human Calpain 9/NS1 (setting [3]) is less than 3 µM; in experiment [1] (setting [4]), 10 to 25 µM; at Human Calpain 1/NS1 (setting [5]), less than 3 µM; on Human Calpain 2/NS1 (setting [6]), less than 3 µM; in experiment [2] (setting [7]), greater than 25 µM.
Take `Cc1cc(C(=O)N[C@@H](Cc2ccccc2)C(=O)C(N)=O)n(-c2ccc(CNC(=O)Oc3ccccc3)cc2)n1` [Compound 162, Phenyl (S)-(4-(5-((4-amino-3,4-dioxo-1-phenylbutan-2-yl)carbamoyl)-3-methyl-1H-pyrazol-1-yl)benzyl)carbamate]: the IC50 is less than 3 µM at Human Calpain 9/NS1; greater than 25 µM in experiment [1] (SH-SY5Y); less than 3 µM at Human Calpain 1/NS1; less than 3 µM on Human Calpain 2/NS1; greater than 25 µM in experiment [2] (setting [8]).
